Measurements: patent US10920278B1, “Method to treat hypotension using vasopressin in certain genotypes” (Par Pharmaceutical, Inc., priority 2020, dated 2021)
Like-named read-outs stand apart in the source and are kept apart here.

Tests used:
[1] = Phase 1 open-label parallel-group PK study of IV vasopressin in healthy volunteers by LNPEP rs4869317 genotype; format: in vivo, human; details: for Css (Max) / Css (Min) / level at 1 h / clearance: plasma; for level at 1 h / clearance: both sexes, human, iv; for level at 1 h: 200 uU/kg/min; for clearance: 200 μU/kg/min
Text: The primary objective of this study was to evaluate differences in plasma clearance of vasopressin following IV administration in subjects with the TT genotype (rs4869317) versus those with the AA/AT genotype of the LNPEP gene in healthy volunteers. The secondary objective of the study was to assess the safety and tolerability of vasopressin in healthy volunteers. This was a Phase 1, open-label, 2-arm, parallel group, PK study in healthy volunteers. Approximately 48 healthy male and female subjects were enrolled at a single center in the United States to achieve at least 19 evaluable subjects per genotype group. The study comprised a screening period, a treatment period, and a follow-up phone call.
Subjects were screened for general good health over a 28-day period. Screening evaluations included medical history, physical examination, vital sign measurement, 12-lead electrocardiogram (ECG), and clinical laboratory testing (hematology, serum chemistry, and urinalysis). In addition, subjects were advised of the diet and medication restrictions and agreed to conform to them.
As a part of screening, the LNPEP genotype (TT or AA/AT) of the subjects was determined. The target enrollment was 24 subjects with the SNP rs4869317 (TT genotype). As the control group, 24 subjects with the AA/AT genotype were approximately matched with respect to age (±5 years), sex, race, BMI (±5%), and creatinine clearance (±10 mL/min). An effort was made to enroll at least 4 female subjects in each genotype group. Subjects were matched during screening and confirmed at check-in on Day-2. Subjects were enrolled for participation in 2 genotype groups of a minimum size of 24 subjects per genotype group in order to meet a minimum of 19 evaluable subjects per genotype group.
A dose of 200 μU/kg/min vasopressin (VASOSTRICT®) was used for this healthy volunteer PK study. The dose roughly corresponds to 0.012 units/minute for a 60 kg individual. This value is approximately equal to the starting dose of 0.01 units/minute in the VASOSTRICT® prescribing information. Clearance in healthy volunteers (15 mL/min/kg) at the vasopressin dose of 200 μU/kg/minute planned for study is within this range. Blood samples for PK analysis were drawn at baseline and 5, 15, 30, and 60 minutes following infusion. If TT genotyped subjects cleared vasopressin at a faster rate, patients of this genotype may benefit from an altered dosing regimen.
Subjects who meet all inclusion and none of the exclusion criteria received vasopressin continuous IV infusion at a constant rate of 200 μU/kg/min for 60 minutes on Day 1. To minimize orthostatic hypotension, subjects remained supine throughout the duration of the infusion. Eligible subjects were admitted to the clinical unit on Day-2, i.e., two days prior to dosing, to ensure adequate hydration and to standardize sodium intake. Vasopressin levels were also be determined during this period. Subjects remained confined until completion of all study procedures. While in the clinical unit, subjects were fed a standard diet with a dietary sodium intake limited to 2300 mg per day and drank no less than 1.0 to 1.5 L of water per day in addition to usual consumed beverages.
Study drug was administered on the morning of Day 1 under standard fasting conditions (minimum of 10-hour overnight fast). Passive telemetry monitoring occurred during the infusion. One hour prior to dosing, each subject was given an oral water load of 20 mL/kg to be consumed within 30 minutes. Thereafter, a second 20 mL/kg volume of water was made available. Subjects continued to drink water at regular intervals through the next 90 minutes (end of the infusion). Subjects were asked to pass urine spontaneously within 15 minutes prior to the start of infusion. The fasting restriction continued until the end of the infusion.
Subjects remained in the clinical unit after the end of the infusion and were discharged the following day (Day 2). […]

[2] = Table 1 overview of parameters, infusion rate 0.03 units/minute, TT vs AA/AT genotype patients; format: in vivo, human; details: for clearance / level at time molar: human, in vivo, 0.03 units/minute; for clearance: intravenous; for level at time molar: iv
[3] = cited from earlier work
[4] = septic shock patients, VASST trial, Nakada et al.; cited from earlier work
[5] = cited from earlier work; remark: listed apart in the source
[6] = AA/AT (n=12) vs TT (n=12), 60 minute continuous IV infusion 200 μU/kg/min
[7] = AA/AT genotype healthy volunteers (12 subjects), 200 μU/kg/min continuous IV infusion for 60 minutes
[8] = TT compared with AA/AT genotype
[9] = TT genotype healthy volunteers (12 subjects), 200 μU/kg/min continuous IV infusion for 60 minutes

In the case of NC(=O)CC[C@@H]1NC(=O)[C@H](Cc2ccccc2)NC(=O)[C@H](Cc2ccc(O)cc2)NC(=O)[C@@H](N)CSSC[C@@H](C(=O)N2CCC[C@H]2C(=O)N[C@@H](CCCN=C(N)N)C(=O)NCC(N)=O)NC(=O)[C@H](CC(N)=O)NC1=O [vasopressin, Cyclo (1-6) L-Cysteinyl-L-Tyrosyl-L-Phenylalanyl-L-Glutaminyl-L-Asparaginyl-L-Cysteinyl-L-Prolyl-L-Arginyl-L-Glycinamide], the “higher plasma clearance in AA/AT than TT rs4869317 genotype” value [1, 6] is reported as 25.5%, the “lower steady state concentration in AA/AT than TT rs4869317 genotype” value [1, 6] is reported as 21.42% and the “Css (Max)” value [1, 7] is reported as 0.0414 ng/mL. The “Css (Min)” value [1, 7] was 0.0101 ng/mL, the “vasopressin clearance, TT vs AA/AT genotyped patients (in words)” value [1, 8] was “lower vasopressin clearance” and the “vasopressin plasma concentrations, TT vs AA/AT genotyped patients (in words)” value [1, 8] was “higher vasopressin plasma concentrations”. For the same compound, the “Css (Max)” value [1, 9] was 0.0861 ng/mL, the “Css (Min)” value [1, 9] was 0.0171 ng/mL and the “mean clearance in TT patients less than that of AA/AT patients” value ([1]; TT vs AA/AT genotype) was “about 20%”. For the same compound, the “mean steady state plasma concentration in TT patients higher than that of AA/AT patients” value ([1]; TT vs AA/AT genotype) was “about 27.4%”, the level at 1 h ([1]; AA/AT genotype healthy volunteers (12 subjects), 200 μU/kg/min continuous IV infusion for 60 minutes, read-out: Css (Mean), concentration at steady state) was 0.025 ng/mL and the level at 1 h ([1]; AA/AT genotype healthy volunteers (12 subjects), 200 μU/kg/min continuous IV infusion for 60 minutes, read-out: Css (Median)) was 0.0251 ng/mL. For the same compound, the level at 1 h ([1]; AA/AT rs4869317 genotype (n = 12), 60 minute continuous IV infusion 200 μU/kg/min, read-out: Steady State Concentration at 60 minutes (Css)) was 0.025 ng/mL, the level at 1 h ([1]; TT genotype healthy volunteers (12 subjects), 200 μU/kg/min continuous IV infusion for 60 minutes, read-out: Css (Mean), concentration at steady state) was 0.0319 ng/mL and the level at 1 h ([1]; TT genotype healthy volunteers (12 subjects), 200 μU/kg/min continuous IV infusion for 60 minutes, read-out: Css (Median)) was 0.0271 ng/mL. The level at 1 h ([1]; TT rs4869317 genotype (n = 12), 60 minute continuous IV infusion 200 μU/kg/min, read-out: Steady State Concentration at 60 minutes (Css)) was 0.0319 ng/mL, the clearance ([1]; AA/AT genotype healthy volunteers (12 subjects), 200 μU/kg/min continuous IV infusion for 60 minutes, read-out: CL (Max)) was 37.3 mL/min/kg and the clearance ([1]; AA/AT genotype healthy volunteers (12 subjects), 200 μU/kg/min continuous IV infusion for 60 minutes, read-out: CL (Mean)) was 17.4 mL/min/kg. It also gave a clearance ([1]; AA/AT genotype healthy volunteers (12 subjects), 200 μU/kg/min continuous IV infusion for 60 minutes, read-out: CL (Median)) of 15 mL/min/kg, a clearance ([1]; AA/AT genotype healthy volunteers (12 subjects), 200 μU/kg/min continuous IV infusion for 60 minutes, read-out: CL (Min)) of 9.1 mL/min/kg and a clearance ([1]; AA/AT rs4869317 genotype (n = 12), 60 minute continuous IV infusion 200 μU/kg/min, read-out: Total Plasma Clearance (CL) Value) of 17.4 mL/min/kg. It also gave a clearance ([1]; TT genotype healthy volunteers (12 subjects), 200 μU/kg/min continuous IV infusion for 60 minutes, read-out: CL (Max)) of 22 mL/min/kg, a clearance ([1]; TT genotype healthy volunteers (12 subjects), 200 μU/kg/min continuous IV infusion for 60 minutes, read-out: CL (Mean)) of 13.8 mL/min/kg and a clearance ([1]; TT genotype healthy volunteers (12 subjects), 200 μU/kg/min continuous IV infusion for 60 minutes, read-out: CL (Median)) of 14 mL/min/kg. For the same compound, the clearance ([1]; TT genotype healthy volunteers (12 subjects), 200 μU/kg/min continuous IV infusion for 60 minutes, read-out: CL (Min)) was 4.4 mL/min/kg, the clearance ([1]; TT rs4869317 genotype (n = 12), 60 minute continuous IV infusion 200 μU/kg/min, read-out: Total Plasma Clearance (CL) Value) was 13.8 mL/min/kg and the “% change in the pharmacokinetic parameters in AA/AT genotype patients vs. TT genotype patients” value [2] was less than 33%. The “% increase in clearance in AA/AT genotype patients vs. TT genotype patients” value [2] was no less than 46%, the clearance ([2]; read-out: Clearance in AA/AT genotype patients) was 28.7 mL/min/kg and the clearance ([2]; read-out: Clearance in TT genotype patients) was 19.7 mL/min/kg. The level at time molar ([2]; read-out: Concentration at steady state in AA/AT genotype patients) was 3.17 pM, the level at time molar ([2]; read-out: Concentration at steady state in TT genotype patients) was 4.7 pM and the “dose excreted unchanged in urine” value ([3]; VASOSTRICT prescribing information 2019) was “about 6%”. The apparent half-life ([3]; VASOSTRICT prescribing information, at these levels) was less than 10 min, the “Clearance in healthy volunteers” value ([3]; vasopressin dose of 200 μU/kg/minute) was 15 mL/min/kg and the “vasopressin clearance, TT vs AA or AT genotyped patients (in words)” value [4] was “increase in vasopressin clearance”. The “rates of serious adverse events in AA genotype patients (in words)” value ([5]; septic shock patients who received vasopressin, Anantasit et al.) was “significantly higher rates of serious adverse events” and the “AVP blood levels, TT/TA vs AA genotype (in words)” value ([5]; septic shock patients, Anantasit et al. FIG. 2) was “statistically significant higher AVP blood levels”.
